Results as given in patent US9850225B2, “Compounds useful as immunomodulators” (BRISTOL-MYERS SQUIBB COMPANY, priority 2014, dated 2017).
Where two headings read alike, the source gives them in different places.

Target: PD-1/PD-L1 interaction (PD-1-Ig / PD-L1-His) (Homo sapiens (Human), UniProt Q9NZQ7)
Assay: PD-1/PD-L1 Homogenous Time-Resolved Fluorescence (HTRF) binding assay
Conditions: PD-1/PD-L1 HTRF binding assay, read-out: Range or IC50
Method in brief: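 HTRF detection used 1 nM europium-cryptate anti-Ig and 20 nM APC anti-His. Compounds first saw 10 nM PD-L1-His for 15 min, and 20 nM PD-1-Ig was then added for another 15 min. Buffer was dPBS plus 0.1% BSA and 0.05% Tween-20. All concentrations are final.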

PD-1/PD-L1 interaction (PD-1-Ig / PD-L1-His), sequence (Q9NZQ7 other isoform, or with tags, fused parts or gaps): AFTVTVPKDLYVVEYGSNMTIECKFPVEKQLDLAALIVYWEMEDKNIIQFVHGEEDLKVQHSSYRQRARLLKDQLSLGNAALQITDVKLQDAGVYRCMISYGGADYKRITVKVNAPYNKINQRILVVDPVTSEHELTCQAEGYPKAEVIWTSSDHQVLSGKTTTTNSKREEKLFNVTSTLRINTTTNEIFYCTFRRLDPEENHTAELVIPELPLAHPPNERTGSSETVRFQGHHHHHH

Structure (SMILES) | IC50 (value given as range class) [nM] | IC50 (numeric value) [nM]
COc1cc(COc2cc(OCc3cccc(-c4ccc5c(c4)OCCO5)c3C)c(Cl)cc2CO)ccn1 [Example 3016, (5-chloro-4-{[3-(2,3-dihydro-1,4-benzodioxin-6-yl)-2-methylphenyl]methoxy}-2-[(2-methoxypyridin-4-yl)methoxy]phenyl)methanol] | 100 to 20000 | –
COc1cccc(COc2cc(OCc3cccc(-c4ccccc4)c3C)ccc2CNCCNC(C)=O)c1 [Example 1086, N-(2-((2-((3-methoxybenzyl)oxy)-4-((2-methyl-[1,1′-biphenyl]-3-yl)methoxy)benzyl)amino)ethyl)acetamide] | 100 to 20000 | –
CC(=O)NCCNCc1ccc(OCc2cccc(-c3ccccc3)c2C)cc1OCc1ccc(F)cc1F [Example 1064, N-(2-((2-((2,4-difluorobenzyl)oxy)-4-((2-methyl-[1,1′-biphenyl]-3-yl)methoxy)benzyl)amino)ethyl)acetamide] | 100 to 20000 | –
CC(=O)NCCNCc1ccc(OCc2cccc(-c3ccccc3)c2C)cc1OCc1ccc(C(N)=O)cc1 [Example 1039] | 100 to 20000 | –
Cc1c(COc2cc(OCc3cccc(C#N)c3)c(CNC(CO)(Cc3ccccc3)C(=O)O)cc2Cl)cccc1-c1ccc2c(c1)OCCO2 (stereo not shown) [Example 1218, 2-benzyl-2-((5-chloro-2-((3-cyanobenzyl)oxy)-4-((3-(2,3-dihydrobenzo[b][1,4]dioxin-6-yl)-2-methylbenzyl)oxy)benzyl)amino)-3-hydroxypropanoic acid] | – | 10.1
CC(=O)NCCNCc1ccc(OCc2cccc(-c3ccccc3)c2C)cc1OCc1cccc2ccccc12 [Example 1063, N-(2-((4-((2-methyl-[1,1′-biphenyl]-3-yl)methoxy)-2-(naphthalen-1-ylmethoxy)benzyl)amino)ethyl)acetamide] | 100 to 20000 | –
CC(=O)NCCNCc1ccc(OCc2cccc(-c3ccccc3)c2C)cc1OCc1ccccc1OC(F)(F)F [Example 1087, N-(2-((4-((2-methyl-[1,1′-biphenyl]-3-yl)methoxy)-2-((2-(trifluoromethoxy)benzyl)oxy)benzyl)amino)ethyl)acetamide] | 100 to 20000 | –
N#Cc1cccc(COc2cc(OCc3cccc(-c4ccc5c(c4)OCCO5)c3Cl)ccc2CN2CCCC[C@H]2C(=O)O)c1 [Example 1145, (S)-1-(4-(2-chloro-3-(2,3-dihydrobenzo[b][1,4]dioxin-6-yl)benzyloxy)-2-(3-cyanobenzyloxyl)benzyl)piperidine-2-carboxylic acid] | 10 to 100 | –
CC(=O)NCCNCc1ccc(OCc2cccc(-c3ccccc3)c2C)cc1OCc1ccccc1OC(F)F [Example 1085, N-(2-((2-((2-(difluoromethoxy)benzyl)oxy)-4-((2-methyl-[1,1′-biphenyl]-3-yl)methoxy)benzyl)amino)ethyl)acetamide] | 100 to 20000 | –
Cc1c(COc2cc(OCc3cncc(C#N)c3)c(CN[C@](C)(CO)C(=O)O)cc2Br)cccc1-c1ccc2c(c1)OCCO2 [Example 1320, (R)-2-(5-bromo-2-((5-cyanopyridin-3-yl)methoxy)-4-(3-(2,3-dihydrobenzo[b][1,4]dioxin-6-yl)-2-methylbenzyloxy)benzylamino)-3-hydroxy-2-methylpropanoic acid] | 0.6 to 10 | –
CC[C@@H](NCc1cc(Cl)c(OCc2cccc(-c3ccc4c(c3)OCCO4)c2C)cc1OCc1cccc(C#N)c1)C(=O)O [Example 1193, (R)-2-((5-chloro-2-((3-cyanobenzyl)oxy)-4-((3-(2,3-dihydrobenzo[b][1,4]dioxin-6-yl)-2-methylbenzyl)oxy)benzyl)amino)butanoic acid] | 0.6 to 10 | –
COc1cc(OCc2cccc(-c3ccc4c(c3)OCCO4)c2C)cc(OCc2cccc(C#N)c2)c1CNC[C@@H](O)CC(=O)O [Example 1140, (S)-4-((2-((3-cyanobenzyl)oxy)-4-((3-(2,3-dihydrobenzo[b][1,4]dioxin-6-yl)-2-methylbenzyl)oxy)-6-methoxybenzyl)amino)-3-hydroxybutanoic acid] | 0.6 to 10 | –
COc1cc(OCc2cccc(-c3ccccc3)c2C)cc(OCc2cccc(C#N)c2)c1CN[C@@H](C(=O)O)[C@H](C)O [Example 1135, (2R,3S)-2-((2-((3-cyanobenzyl)oxy)-6-methoxy-4-((2-methyl-[1,1′-biphenyl]-3-yl)methoxy)benzyl)amino)-3-hydroxybutanoic acid] | 0.6 to 10 | –
Cc1c(COc2cc(OCc3cccc(C#N)c3)c(CNC3(C(=O)O)CC3)cc2Cl)cccc1-c1ccc2c(c1)OCCO2 [Example 1177, 1-((5-chloro-2-((3-cyanobenzyl)oxy)-4-((3-(2,3-dihydrobenzo[b][1,4]dioxin-6-yl)-2-methylbenzyl)oxy)benzyl)amino)cyclopropanecarboxylic acid] | 0.6 to 10 | –
CCCOc1cc(OCc2cccc(-c3ccccc3)c2C)ccc1CNCCNC(C)=O [Example 1027, N-(2-((4-((2-methyl-[1,1′-biphenyl]-3-yl)methoxy)-2-propoxybenzyl)amino)ethyl)acetamide] | 100 to 20000 | –
CC(=O)NCCNCc1cc(Br)c(OCc2cccc(-c3ccc4c(c3)OCCO4)c2C)cc1OCc1cncc(C#N)c1 [Example 1317, N-(2-(5-bromo-2-((5-cyanopyridin-3-yl)methoxy)-4-(3-(2,3-dihydrobenzo[b][1,4]dioxin-6-yl)-2-methylbenzyloxy)benzylamino)ethyl)acetamide] | 0.6 to 10 | –
CC(=O)NCCNCc1cc(Cl)c(OCc2cccc(-c3ccc4c(c3)OCCO4)c2C)cc1OCc1cncc(Br)c1 [Example 1255, N-(2-(2-((5-bromopyridin-3-yl)methoxy)-5-chloro-4-(3-(2,3-dihydrobenzo[b][1,4]dioxin-6-yl)-2-methylbenzyloxy)benzylamino)ethyl)acetamide] | 0.6 to 10 | –
Cc1cc(OCc2cccc(-c3ccc4c(c3)OCCO4)c2C)cc(OCc2cncc(C#N)c2)c1CNC[C@@H](O)CC(=O)O [Example 1006, (S)-4-(2-((5-cyanopyridin-3-yl)methoxy)-4-(3-(2,3-dihydrobenzo[b][1,4]dioxin-6-yl)-2-methylbenzyloxy)-6-methylbenzylamino)-3-hydroxybutanoic acid] | 0.6 to 10 | –
Cc1c(COc2cc(OCc3cccc(C#N)c3)c(CN(Cc3ccccc3)[C@@H](CO)C(=O)O)cc2Cl)cccc1-c1ccc2c(c1)OCCO2 [Example 1171, (S)-2-(benzyl(5-chloro-2-((3-cyanobenzyl)oxy)-4-((3-(2,3-dihydrobenzo[b][1,4]dioxin-6-yl)-2-methylbenzyl)oxy)benzyl)amino)-3-hydroxypropanoic acid] | 10 to 100 | –

Second part, the compound after the results:

IC50 (value given as range class) [nM] | IC50 (numeric value) [nM] | Structure (SMILES)
0.6 to 10 | – | Cc1cc(OCc2cccc(-c3ccc4c(c3)OCCO4)c2C)cc(OCc2cccc(C#N)c2)c1CNC[C@@H](O)CC(=O)O [Example 1003, (S)-4-(2-(3-cyanobenzyloxy)-4-(3-(2,3-dihydrobenzo[b][1,4]dioxin-6-yl)-2-methylbenzyloxy)-6-methylbenzylamino)-3-hydroxybutanoic acid]
0.6 to 10 | – | Cc1cc(CN2CCCC[C@H]2C(=O)O)c(OCc2cncc(C#N)c2)cc1OCc1cccc(-c2ccc3c(c2)OCCO3)c1C [Example 1285, (S)-1-(2-((5-cyanopyridin-3-yl)methoxy)-4-(3-(2,3-dihydrobenzo[b][1,4]dioxin-6-yl)-2-methylbenzyloxy)-5-methylbenzyl)piperidine-2-carboxylic acid]
0.6 to 10 | – | Cc1cc(CN[C@H](CO)C(=O)O)c(OCc2cncc(C#N)c2)cc1OCc1cccc(-c2ccc3c(c2)OCCO3)c1Cl [Example 1153, (R)-2-(4-(2-chloro-3-(2,3-dihydrobenzo[b][1,4]dioxin-6-yl)benzyloxy)-2-((5-cyanopyridin-3-yl)methoxy)-5-methylbenzylamino)-3-hydroxypropanoic acid]
0.6 to 10 | – | N#Cc1cccc(COc2cc(OCc3cccc(-c4ccc5c(c4)OCCO5)c3Cl)ccc2CN[C@H](CO)C(=O)O)c1 [Example 1146, (R)-2-(4-(2-chloro-3-(2,3-dihydrobenzo[b][1,4]dioxin-6-yl)benzyloxy)-2-(3-cyanobenzyloxy)benzylamino)-3-hydroxypropanoic acid]
0.6 to 10 | – | Cc1c(COc2ccc(CN[C@@](C)(CO)C(=O)O)c(OCc3cccc(C#N)c3)c2)cccc1-c1ccccc1 [Example 1019, (S)-2-((2-((3-cyanobenzyl)oxy)-4-((2-methyl-[1,1′-biphenyl]-3-yl)methoxy)benzyl)amino)-3-hydroxy-2-methylpropanoic acid]
0.6 to 10 | – | Cc1c(COc2ccc(CN[C@@H](C(=O)O)[C@H](C)O)c(OCc3cccc(C#N)c3)c2)cccc1-c1ccc2c(c1)OCCO2 [Example 1123, (2R,3S)-2-((2-((3-cyanobenzyl)oxy)-4-((3-(2,3-dihydrobenzo[b][1,4]dioxin-6-yl)-2-methylbenzyl)oxy)benzyl)amino)-3-hydroxybutanoic acid]
0.6 to 10 | – | Cc1c(COc2cc(OCc3cccc(C#N)c3)c(CN3CCCC3C(=O)O)cc2Cl)cccc1-c1ccc2c(c1)OCCO2 (stereo not shown) [Example 1165, 1-(5-chloro-2-((3-cyanobenzyl)oxy)-4-((3-(2,3-dihydrobenzo[b][1,4]dioxin-6-yl)-2-methylbenzyl)oxy)benzyl)pyrrolidine-2-carboxylic acid]
0.6 to 10 | – | Cc1cc(CN[C@@](C)(CO)C(=O)O)c(OCc2cncc(C#N)c2)cc1OCc1cccc(-c2ccc3c(c2)OCCO3)c1C [Example 1286, (S)-2-(2-((5-cyanopyridin-3-yl)methoxy)-4-(3-(2,3-dihydrobenzo[b][1,4]dioxin-6-yl)-2-methylbenzyloxy)-5-methylbenzylamino)-3-hydroxy-2-methylpropanoic acid]
0.6 to 10 | – | Cc1c(COc2cc(OCc3cccc(C#N)c3)c(CNC(C)(Cc3c[nH]cn3)C(=O)O)cc2Cl)cccc1-c1ccc2c(c1)OCCO2 (stereo not shown) [Example 1191, 2-((5-chloro-2-((3-cyanobenzyl)oxy)-4-((3-(2,3-dihydrobenzo[b][1,4]dioxin-6-yl)-2-methylbenzyl)oxy)benzyl)amino)-3-(1H-imidazol-4-yl)-2-methylpropanoic acid]
